Measurements reported in patent US20230085307A1, “PYRIDAZINONE COMPOUND AND HERBICIDE” (NISSAN CHEMICAL CORPORATION, priority 2019, published 2023).

Legend:
[1] = test system: windgrass; assay: Test Example 4: herbicidal effect by soil treatment (Table 19, symbol L); assay type: in vivo, windgrass (Apera spica-venti); conditions: amount of applied herbicide 320 g/ha
Procedure, shortened: (§1)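 Pre-emergence style soil spray: seeds under ~1.5 cm sterilized diluvial soil received a uniform coat of emulsion diluted to the predetermined herbicide amount. Greenhouse 25–30° C; readout at week three on previously defined criteria.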

[2] = test system: chickweed; assay: Test Example 5: herbicidal effect by foliage application, plastic box (Table 20, symbol P); assay type: in vivo, common chickweed (Stellaria media); conditions: amount of applied herbicide 320 g/ha; foliage application after 14-day growth; evaluated three weeks after application
Procedure, shortened: (§2)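 Plants were sown into sterilized diluvial soil under about 1.5 cm cover and kept in a greenhouse at 25° C. to 30° C. Fourteen days on, foliage received an even spray of the diluted emulsion. Herbicidal or crop effect was judged three weeks afterwards.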

[3] = test system: velvetleaf; assay: Test Example 5: herbicidal effect by foliage application, plastic box (Table 20, symbol M); assay type: in vivo, velvetleaf (Abutilon theophrasti); conditions: amount of applied herbicide 320 g/ha; foliage application after 14-day growth; evaluated three weeks after application
Procedure, shortened: as §2

[4] = test system: Japanese bulrush; assay: Test Example 1: herbicidal activity, application before weed generation under submerged conditions (Table 16, symbol B); assay type: in vivo, Japanese bulrush (Schoenoplectus juncoides); conditions: amount of applied herbicide 320 g/ha
Procedure, shortened: (§3)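 Emulsion formulation, water-diluted to set dose, was put onto the flooded surface (4 cm depth, alluvial soil) the same day weeds were sown and 2.5-leaf rice transplanted. After 3 weeks at 25-30 °C under glass, each species was rated 0 (≤5% kill) to 5 (≥90% kill).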

[5] = test system: Italian ryegrass; assay: Test Example 5: herbicidal effect by foliage application, plastic box (Table 20, symbol K); assay type: in vivo, Italian ryegrass (Lolium multiflorum); conditions: amount of applied herbicide 320 g/ha; foliage application after 14-day growth; evaluated three weeks after application
Procedure, shortened: as §2

[6] = test system: green foxtail; assay: Test Example 5: herbicidal effect by foliage application, plastic box (Table 20, symbol G); assay type: in vivo, green foxtail (Setaria viridis); conditions: amount of applied herbicide 320 g/ha; foliage application after 14-day growth; evaluated three weeks after application
Procedure, shortened: as §2

[7] = test system: Chinese sprangletop; assay: Test Example 3: herbicidal effect by foliage application, Wagner pot (Table 18, symbol D); assay type: in vivo, chinese sprangletop (Leptochloa chinensis); conditions: 320 g/ha
Procedure, shortened: (§4)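 Plants were sown in alluvial soil held under 0.1–0.5 cm standing water and grown 14 days in a greenhouse at 25–30 °C. An emulsifiable formulation, water-diluted to the set dose, was then sprayed onto the foliage, and effects were scored three weeks later using previously defined criteria.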

[8] = test system: windgrass; assay: Test Example 5: herbicidal effect by foliage application, plastic box (Table 20, symbol L); assay type: in vivo, windgrass (Apera spica-venti); conditions: amount of applied herbicide 320 g/ha; foliage application after 14-day growth; evaluated three weeks after application
Procedure, shortened: as §2

[9] = test system: oval-leafed pondweed; assay: Test Example 1: herbicidal activity, application before weed generation under submerged conditions (Table 16, symbol C); assay type: in vivo, oval-leafed pondweed (Monochoria vaginalis); conditions: amount of applied herbicide 320 g/ha
Procedure, shortened: as §3

[10] = test system: wild oat; assay: Test Example 4: herbicidal effect by soil treatment (Table 19, symbol I); assay type: in vivo, wild oat (Avena fatua); conditions: amount of applied herbicide 320 g/ha
Procedure, shortened: as §1

[11] = test system: southern crabgrass; assay: Test Example 4: herbicidal effect by soil treatment (Table 19, symbol F); assay type: in vivo, southern crabgrass (Digitaria ciliaris); conditions: amount of applied herbicide 320 g/ha
Procedure, shortened: as §1

[12] = test system: wild oat; assay: Test Example 5: herbicidal effect by foliage application, plastic box (Table 20, symbol I); assay type: in vivo, wild oat (Avena fatua); conditions: amount of applied herbicide 320 g/ha; foliage application after 14-day growth; evaluated three weeks after application
Procedure, shortened: as §2

[13] = test system: velvetleaf; assay: Test Example 4: herbicidal effect by soil treatment (Table 19, symbol M); assay type: in vivo, velvetleaf (Abutilon theophrasti); conditions: amount of applied herbicide 320 g/ha
Procedure, shortened: as §1

[14] = test system: barnyard grass; assay: Test Example 5: herbicidal effect by foliage application, plastic box (Table 20, symbol H); assay type: in vivo, barnyard grass (Echinochloa crus-galli); conditions: amount of applied herbicide 320 g/ha; foliage application after 14-day growth; evaluated three weeks after application
Procedure, shortened: as §2

[15] = test system: blackgrass; assay: Test Example 4: herbicidal effect by soil treatment (Table 19, symbol J); assay type: in vivo, blackgrass (Alopecurus myosuroides); conditions: amount of applied herbicide 320 g/ha
Procedure, shortened: as §1

[16] = test system: redroot pigweed; assay: Test Example 5: herbicidal effect by foliage application, plastic box (Table 20, symbol N); assay type: in vivo, redroot pigweed (Amaranthus retroflexus); conditions: amount of applied herbicide 320 g/ha; foliage application after 14-day growth; evaluated three weeks after application
Procedure, shortened: as §2

[17] = test system: lambsquarters; assay: Test Example 5: herbicidal effect by foliage application, plastic box (Table 20, symbol O); assay type: in vivo, lambsquarters (Chenopodium album); conditions: amount of applied herbicide 320 g/ha; foliage application after 14-day growth; evaluated three weeks after application
Procedure, shortened: as §2

[18] = test system: chickweed; assay: Test Example 4: herbicidal effect by soil treatment (Table 19, symbol P); assay type: in vivo, common chickweed (Stellaria media); conditions: amount of applied herbicide 320 g/ha
Procedure, shortened: as §1

[19] = test system: late watergrass; assay: Test Example 1: herbicidal activity, application before weed generation under submerged conditions (Table 16, symbol A); assay type: in vivo, late watergrass (Echinochloa oryzicola); conditions: amount of applied herbicide 320 g/ha
Procedure, shortened: as §3

[20] = test system: green foxtail; assay: Test Example 4: herbicidal effect by soil treatment (Table 19, symbol G); assay type: in vivo, green foxtail (Setaria viridis); conditions: amount of applied herbicide 320 g/ha
Procedure, shortened: as §1

[21] = test system: barnyard grass; assay: Test Example 3: herbicidal effect by foliage application, Wagner pot (Table 18, symbol H); assay type: in vivo, barnyard grass (Echinochloa crus-galli); conditions: 320 g/ha
Procedure, shortened: as §4

[22] = test system: rice flat sedge; assay: Test Example 3: herbicidal effect by foliage application, Wagner pot (Table 18, symbol E); assay type: in vivo, rice flat sedge (Cyperus iria); conditions: 320 g/ha
Procedure, shortened: as §4

[23] = test system: redroot pigweed; assay: Test Example 4: herbicidal effect by soil treatment (Table 19, symbol N); assay type: in vivo, redroot pigweed (Amaranthus retroflexus); conditions: amount of applied herbicide 320 g/ha
Procedure, shortened: as §1

[24] = test system: lambsquarters; assay: Test Example 4: herbicidal effect by soil treatment (Table 19, symbol O); assay type: in vivo, lambsquarters (Chenopodium album); conditions: amount of applied herbicide 320 g/ha
Procedure, shortened: as §1

[25] = test system: blackgrass; assay: Test Example 5: herbicidal effect by foliage application, plastic box (Table 20, symbol J); assay type: in vivo, blackgrass (Alopecurus myosuroides); conditions: amount of applied herbicide 320 g/ha; foliage application after 14-day growth; evaluated three weeks after application
Procedure, shortened: as §2

[26] = test system: persian speedwell; assay: Test Example 5: herbicidal effect by foliage application, plastic box (Table 20, symbol R); assay type: in vivo, Persian speedwell (Veronica persica); conditions: amount of applied herbicide 320 g/ha; foliage application after 14-day growth; evaluated three weeks after application
Procedure, shortened: as §2

[27] = test system: southern crabgrass; assay: Test Example 5: herbicidal effect by foliage application, plastic box (Table 20, symbol F); assay type: in vivo, southern crabgrass (Digitaria ciliaris); conditions: amount of applied herbicide 320 g/ha; foliage application after 14-day growth; evaluated three weeks after application
Procedure, shortened: as §2

[28] = test system: barnyard grass; assay: Test Example 4: herbicidal effect by soil treatment (Table 19, symbol H); assay type: in vivo, barnyard grass (Echinochloa crus-galli); conditions: amount of applied herbicide 320 g/ha
Procedure, shortened: as §1

[29] = test system: false cleavers; assay: Test Example 4: herbicidal effect by soil treatment (Table 19, symbol Q); assay type: in vivo, false cleavers (Galium spurium); conditions: amount of applied herbicide 320 g/ha
Procedure, shortened: as §1

[30] = test system: Italian ryegrass; assay: Test Example 4: herbicidal effect by soil treatment (Table 19, symbol K); assay type: in vivo, Italian ryegrass (Lolium multiflorum); conditions: amount of applied herbicide 320 g/ha
Procedure, shortened: as §1

Row | SMILES | Herbicidal effect by foliage application, P: chickweed [2] | Herbicidal effect by foliage application, M: velvetleaf [3] | Herbicidal effect, B: Japanese bulrush [4] | Herbicidal effect by foliage application, K: Italian ryegrass [5] | Herbicidal effect by foliage application, G: green foxtail [6] | herbicidal effect on Chinese sprangletop (D) [7] | Herbicidal effect by foliage application, L: windgrass [8] | Herbicidal effect, C: oval-leafed pondweed [9] | Herbicidal effect by foliage application, I: wild oat [12] | Herbicidal effect by foliage application, H: barnyard grass [14] | Herbicidal effect by foliage application, N: redroot pigweed [16] | Herbicidal effect by foliage application, O: lambsquarters [17] | Herbicidal effect, A: late watergrass [19] | herbicidal effect on barnyard grass (H) [21] | herbicidal effect on rice flat sedge (E) [22] | Herbicidal effect by foliage application, J: blackgrass [25] | Herbicidal effect by foliage application, R: persian speedwell [26] | Herbicidal effect by foliage application, F: southern crabgrass [27] | also measured
1 | Cc1nn(C)c(=O)c(-c2c(-c3ccc(C(F)(F)F)cc3)sc3c(C)cccc23)c1O [4-126] | 5 (Herbicidal rate of 90% or more (almost completely withered)) | 5 (Herbicidal rate of 90% or more (almost completely withered)) | 0 (Herbicidal rate of 5% or less (almost no effect)) | 4 (Herbicidal rate of 70% or more and less than 90%) | 0 (Herbicidal rate of 5% or less (almost no effect)) | 0 (Herbicidal rate of 5% or less (almost no effect)) | 0 (Herbicidal rate of 5% or less (almost no effect)) | 0 (Herbicidal rate of 5% or less (almost no effect)) | 0 (Herbicidal rate of 5% or less (almost no effect)) | 0 (Herbicidal rate of 5% or less (almost no effect)) | 5 (Herbicidal rate of 90% or more (almost completely withered)) | 3 (Herbicidal rate of 40% or more and less than 70%) | 3 (Herbicidal rate of 40% or more and less than 70%) | 3 (Herbicidal rate of 40% or more and less than 70%) | 3 (Herbicidal rate of 40% or more and less than 70%) | 3 (Herbicidal rate of 40% or more and less than 70%) | 5 (Herbicidal rate of 90% or more (almost completely withered)) | 0 (Herbicidal rate of 5% or less (almost no effect)) | Herbicidal effect by soil treatment, L: windgrass [1]: 0 (Herbicidal rate of 5% or less (almost no effect)); Herbicidal effect by soil treatment, I: wild oat [10]: 0 (Herbicidal rate of 5% or less (almost no effect)); Herbicidal effect by soil treatment, F: southern crabgrass [11]: 0 (Herbicidal rate of 5% or less (almost no effect)); Herbicidal effect by soil treatment, M: velvetleaf [13]: 0 (Herbicidal rate of 5% or less (almost no effect)); Herbicidal effect by soil treatment, J: blackgrass [15]: 0 (Herbicidal rate of 5% or less (almost no effect)); Herbicidal effect by soil treatment, P: chickweed [18]: 4 (Herbicidal rate of 70% or more and less than 90%); Herbicidal effect by soil treatment, G: green foxtail [20]: 0 (Herbicidal rate of 5% or less (almost no effect)); Herbicidal effect by soil treatment, N: redroot pigweed [23]: 5 (Herbicidal rate of 90% or more (almost completely withered)); Herbicidal effect by soil treatment, O: lambsquarters [24]: 3 (Herbicidal rate of 40% or more and less than 70%); Herbicidal effect by soil treatment, H: barnyard grass [28]: 0 (Herbicidal rate of 5% or less (almost no effect)); Herbicidal effect by soil treatment, Q: false cleavers [29]: 0 (Herbicidal rate of 5% or less (almost no effect)); Herbicidal effect by soil treatment, K: Italian ryegrass [30]: 1 (Herbicidal rate of 5% or more and less than 20%)
2 | CCCC(=O)Oc1c(C)nn(C)c(=O)c1-c1c(-c2ccc(F)cc2OCC)sc2cc(F)c(F)cc12 [5-032] | 5 (Herbicidal rate of 90% or more (almost completely withered)) | 4 (Herbicidal rate of 70% or more and less than 90%) | 1 (Herbicidal rate of 5% or more and less than 20%) | 0 (Herbicidal rate of 5% or less (almost no effect)) | 2 (Herbicidal rate of 20% or more and less than 40%) | 3 (Herbicidal rate of 40% or more and less than 70%) | 4 (Herbicidal rate of 70% or more and less than 90%) | 0 (Herbicidal rate of 5% or less (almost no effect)) | 0 (Herbicidal rate of 5% or less (almost no effect)) | 4 (Herbicidal rate of 70% or more and less than 90%) | 3 (Herbicidal rate of 40% or more and less than 70%) | 3 (Herbicidal rate of 40% or more and less than 70%) | 4 (Herbicidal rate of 70% or more and less than 90%) | 4 (Herbicidal rate of 70% or more and less than 90%) | 0 (Herbicidal rate of 5% or less (almost no effect)) | 3 (Herbicidal rate of 40% or more and less than 70%) | 3 (Herbicidal rate of 40% or more and less than 70%) | 0 (Herbicidal rate of 5% or less (almost no effect)) | L: windgrass, herbicidal effect grade [1]: 5 (Herbicidal rate of 90% or more (almost completely withered)); I: wild oat, herbicidal effect grade [10]: 0 (Herbicidal rate of 5% or less (almost no effect)); F: southern crabgrass, herbicidal effect grade [11]: 0 (Herbicidal rate of 5% or less (almost no effect)); M: velvetleaf, herbicidal effect grade [13]: 1 (Herbicidal rate of 5% or more and less than 20%); J: blackgrass, herbicidal effect grade [15]: 3 (Herbicidal rate of 40% or more and less than 70%); P: chickweed, herbicidal effect grade [18]: 0 (Herbicidal rate of 5% or less (almost no effect)); G: green foxtail, herbicidal effect grade [20]: 3 (Herbicidal rate of 40% or more and less than 70%); N: redroot pigweed, herbicidal effect grade [23]: 4 (Herbicidal rate of 70% or more and less than 90%); O: lambsquarters, herbicidal effect grade [24]: 4 (Herbicidal rate of 70% or more and less than 90%); H: barnyard grass, herbicidal effect grade [28]: 0 (Herbicidal rate of 5% or less (almost no effect)); Q: false cleavers, herbicidal effect grade [29]: 0 (Herbicidal rate of 5% or less (almost no effect)); K: Italian ryegrass, herbicidal effect grade [30]: 0 (Herbicidal rate of 5% or less (almost no effect))
